For 86 compounds, IC50 results are on record in PubChem BioAssay AID2305 (GlaxoSmithKline (GSK), 2010).

Several values for one entry are separate records, joined by “and”; a condition that tells them apart may be missing. Equal entries are not always repeated.

This experiment deals with P. falciparum 3D7 growth, pLDH absorbance. As to the kind of experiment: P. falciparum 3D7 growth inhibition, dose response, strain 3D7 (AID 2305).

Consider `O=C(NCc1cccc2ccccc12)[C@@H]1CCCN1C(=O)c1ccc(O)c(-c2ccc(Cl)c(Cl)c2)c1`, for which the IC50 turned out to be 0.95 µM.
As for `Nc1nc2cccc3ccc4cccc1c4c32`, the figure is 0.92 µM; as for `CC(=O)Nc1ccc(C(=O)Nc2cccc(-c3ccc(-c4nc5ccc(C(F)(F)F)cc5[nH]4)s3)c2)cn1`, 0.13 µM; as for `COc1ccc(CCCN2C(=O)C(c3ccccc3)(c3ccccc3)N=C2N)cc1`, 1.05 µM.
With `CN1CCN(CCCN(Cc2cccc(-c3ccc(CNCc4ccc5c(c4)OCO5)cc3)c2)C(=O)CCC2CCCC2)CC1`, the IC50 worked out at 1 µM.
In the case of `CCc1ccc(C2CCN(CCCCNC(=O)c3ccc(-c4ccc(C(F)(F)F)cc4)cc3)CC2)c(OCCO)c1` it was 0.41 µM; in that of `O=[N+]([O-])c1cccc(S(=O)(=O)N2CCN(CC(O)COc3ccc(-c4ccccc4)cc3)CC2)c1` (stereo unspecified), 1.36 µM.
The compound `COc1cc(CC(C)NCC(O)c2cccc(C(F)(F)F)c2)ccc1OCc1ccccc1` (stereo unspecified) had an IC50 of 0.82 µM.
In the case of `CN1CCN(c2ccnc3ccc(NC(=O)Cc4ccc5ccccc5c4)cc23)CC1` it was 0.76 µM; in that of `COc1ccc2nc(C)cc(NN=Cc3ccccc3F)c2c1`, 0.37 µM.
Compound `CC(C)(C)c1ccc(NC(=O)c2ccc(CN3CCCN(Cc4cccc(C#N)c4)CC3)cc2)cc1` yielded an IC50 of 0.64 µM.
In the case of `COc1cc(NC(=O)N2CCc3cc(OC)c(OCCN4CCCCC4)cc32)cc(C(F)(F)F)c1` it was 1.15 µM.
On to `CC(C)C[C@H](NC(=O)c1cc2ccccc2s1)C(=O)N[C@H]1CCN(Cc2ccc(OC3CCN(C)C3)c(Cl)c2)C1` (stereo partly specified), for which the IC50 was 0.78 µM.
`CC(C)c1cccc(C(C)C)c1NC(=O)NNC(=O)c1ccc(CCN2CCC(c3nc(COCC(F)(F)F)c(-c4ccc(F)cc4)o3)CC2)cc1`: the half-inhibitory concentration (IC50) was determined as 1.09 µM.
`COc1ccc(-c2nonc2NC(=O)c2cccc(C)c2)cc1OC` yielded a 50% inhibitory concentration (IC50) of 0.81 µM.
With `Cc1ccccc1C1CCN(C2CCC(NC(=O)c3ccc(-c4cccc(C(F)(F)F)c4)o3)CC2)CC1` (stereo unspecified), the IC50 is 0.35 µM.
Consider `O=C(NCc1ccc(Cl)c(Cl)c1)c1ccc(-c2nc3ccc(F)cc3[nH]2)cc1`, for which the concentration for half-maximal inhibition (IC50) was determined as 1.03 µM.
As to `CC(C)(C)c1ccc(/C=C/C(=O)NCCCCCN2CCC(c3c[nH]c4ccccc34)CC2)cc1`, the IC50 came out at 1.09 µM.
Consider `Cc1cc(=O)c(-c2cccc(Oc3ccc(Cl)cc3)c2)c(C)[nH]1`, for which the IC50 was found to be 0.74 µM.
In the case of `CN1CCN(CCCSc2ccc3c(c2)ncn3-c2cc(OCc3ccccc3C(F)(F)F)c(C(N)=O)s2)CC1` it was 0.44 µM; in that of `Cc1cc2nc(-c3cccc(C(=O)NC4CCN(Cc5ccccc5)CC4)c3)[nH]c2cc1C`, 0.83 µM; in that of `O=C(NNC(=O)c1ccc(CCN2CCC(c3nc(COCC(F)(F)F)c(-c4ccc(F)cc4)o3)CC2)cc1)Nc1ccc(Oc2ccccc2)cc1`, 0.71 µM.
`CN(Cc1cccc(O)c1)C1CCCN(c2cc(NC(=O)c3ccc(F)cc3)ccn2)C1` (stereo unspecified): the IC50 stood at 1.07 µM.
The compound `Cc1cc(NN=Cc2ccccc2)c2cc(C(F)(F)F)ccc2n1` displayed an IC50 of 0.15 µM.
`O=S(=O)(NCCCN1CCOCC1)c1ccc2nccc(Nc3ccc(Oc4ccccc4)cc3)c2c1` registered an IC50 of 0.85 µM.
The compound `CCc1cn2c3c(cc(C(=O)N[C@@H](Cc4ccccc4)[C@H](O)CNCC(C)C)cc13)N(C)S(=O)(=O)CC2` yielded a half-maximal inhibitory concentration (IC50) of 0.04 µM.
Compound `CCOC(=O)c1cn(CC)c2cc(O[C@H]3CCN(C(=O)OC(C)(C)C)C3)ccc2c1=O` registered a half-maximal inhibitory concentration (IC50) of 0.55 µM. Compared with the last compound, the IC50 is about 14-fold higher.
`O=C(Nc1ccc(OC2CCN(Cc3ccccc3)CC2)c(Cl)c1)c1cccs1` gave a concentration for half-maximal inhibition (IC50) of 0.31 µM.
Take `COc1cc2nccc(Nc3cccc(Oc4ccccc4)c3)c2cc1OC`: the IC50 is 0.64 µM. This IC50 lies about 2.1-fold higher than the previous one.
For `N#Cc1cccc(COC(=O)C2=C(COc3ccccc3Cl)NC(=O)NC2c2c[nH]c3cnccc23)c1` (stereo unspecified), the IC50 turned out to be 0.79 µM.
In the case of `CC(C)C[C@H](NC(=O)OC(C)(C)C)C(=O)Nc1ccc(Cc2ccc(NC(=O)[C@H](CC(C)C)NC(=O)OC(C)(C)C)cc2)cc1`, the half-inhibitory concentration (IC50) turned out to be 0.76 µM. The IC50 values of the last two compounds are within 1.5-fold of each other.
`O=C(/C=C/c1cc(C(F)(F)F)ccc1F)N1CCC(CN2CCC(c3c[nH]c4ccccc34)CC2)CC1` gave a 50% inhibitory concentration (IC50) of 0.99 µM.
For `O=C(/C=C/c1ccc(Cl)c(Cl)c1)NCCCCCN1CCC(NC(=O)c2ccc(F)cc2F)CC1`, the IC50 was found to be 0.76 µM.
In the case of `Cc1cccc2[nH]c(-c3ccc(-c4ccc(CN5CCN(CCN6CCOCC6)CC5)cc4)s3)nc12` it was 0.24 µM; in that of `CCNc1cc(C)nc(Nc2ccc(NC(=O)Cc3ccc(OC)cc3)cc2)n1`, 1.38 µM; in that of `O=C(Nc1cccc(CN2CCCN(Cc3ccc(O)cc3)CC2)c1)c1cc2ccccc2o1`, 1.2 µM.
Regarding `COc1cc(NC(=O)c2sc(-c3ccc(Cl)cc3)cc2NC(=O)CN2CCCC2)ccc1OCCN1CCCC1`, the IC50 was determined as 0.93 µM. The IC50 values of the last two compounds are within 1.5-fold of each other.
In the case of `OC(CNCc1ccccc1OCc1ccccc1)c1cc(Br)cs1` (stereo unspecified) it was 0.72 µM; in that of `COc1cc2nc(N3CCC(CNC(=O)c4ccc(-c5ccc(C(F)(F)F)cc5)cc4)CC3)nc(N)c2cc1OC`, 0.13 µM.
With `c1ccc2[nH]c(-c3ccc(-c4ccc(CNCC5CCCO5)cc4)s3)nc2c1` (stereo unspecified), the IC50 is 0.87 µM.
As for `CN(C)C(=S)NN=Cc1cccc(O)c1O`, the figure is 0.87 µM; as for `Cc1ccc2c(OCCN3CCC(Cc4ccc5c(c4)NC(=O)CO5)CC3)cc(F)cc2n1`, 0.75 µM; as for `OC(CNc1ccnc(Nc2cccc(Cl)c2)n1)c1ccccc1C(F)(F)F` (stereo unspecified), 0.9 µM.
As for `COc1cccc(Nc2nccc(NCC(O)c3cccc(C(F)(F)F)c3)n2)c1` (stereo unspecified), the figure is 0.7 µM.
In turn, `Clc1cc(Nc2ccnc3ccc(Br)cc23)ccc1Oc1ccc(Cl)c2ccccc12` gave a concentration for half-maximal inhibition (IC50) of 0.63 µM.
`c1ccc(CN2CCC(NCc3ccccc3-c3ccc(CNC4CCCC4)cc3)CC2)cc1` registered a concentration for half-maximal inhibition (IC50) of 0.91 µM.
In the case of `Cc1cc(NC2CCCC2)nc(Nc2ccccc2)n1`, the half-maximal inhibitory concentration (IC50) stood at 0.99 µM. This IC50 and that of the compound before are within 1.5-fold of each other.
Take `O=C(Nc1cccc(-c2ccc(-c3nc4ccccc4[nH]3)cc2)c1)c1ccncc1`: the half-maximal inhibitory concentration (IC50) is 0.53 µM.
As for `CCN1CCN(c2cc(C)c3cc(NC(=O)c4ccc(OC)c([N+](=O)[O-])c4)ccc3n2)CC1`, the figure is 0.55 µM; as for `CCN(CC1CCN(CC2(O)CCOCC2)CC1)c1cc(C)nc(Nc2ccc(Cl)cc2)n1`, 0.41 µM; as for `CCOCc1cn(CC(=O)c2ccc(-c3ccccc3)cc2)c(C)nc1=N`, 0.32 µM.
`NC(=NCCCCCCCCN=C(N)Nc1ccc(Cl)cc1)Nc1ccc(Cl)cc1` registered an IC50 of 0.59 µM.
Take `CN1CCCN(Cc2cccc(-c3cccc(NC(=O)c4cccc(C#N)c4)c3)c2)CC1`: the half-maximal inhibitory concentration (IC50) turned out to be 0.82 µM.
In the case of `Clc1ccccc1CCNCC1CCN(CC2CCCCC2)CC1` it was 0.69 µM.
The compound `COC(=O)c1cc(OC)c(OC)cc1NC(=O)NC12CC3CC(CC(C3)C1)C2` yielded an IC50 of 0.88 µM. The IC50 values of the last two compounds are within 1.5-fold of each other.
Regarding `Cc1sc2nc(CSc3ccccc3)nc(N3CCN(CC(=O)NC4CC4)CC3)c2c1C`, the IC50 worked out at 0.46 µM.
In the case of `Cc1ccc(C(=O)N2CCN(Cc3nccs3)CC2)cc1`, the 50% inhibitory concentration (IC50) was 1.01 µM.
As for `CN1CCC(NCc2ccc(-c3ccc(Cl)cc3)cc2)CC1`, the figure is 0.75 µM; as for `O=C(N[C@@H](CC1CCCCC1)C(=O)NCCN1CCCC1)c1ccc(O)c(-c2ccc(Cl)c(Cl)c2)c1`, 0.31 µM.
For `CCCCCCC(C)c1cc(OCCN(CC)CC)c2c(c1)OC(C)(C)C=C2c1ccncc1` (stereo unspecified), the concentration for half-maximal inhibition (IC50) turned out to be 1.26 µM.
`CS(=O)(=O)Nc1ccc2[nH]cc(C3CCN(CCCCCNC(=O)/C=C/c4ccc(Cl)c(Cl)c4)CC3)c2c1` gave an IC50 of 0.74 µM.
As to `Cc1cc(N[C@@H](Cc2ccccc2)C(=O)NC2CCCC2)nc(NCc2ccccc2C)n1`, the IC50 came out at 1.23 µM.
On to `CN(C)CCCOc1ccc(CNCc2cccc(Oc3ccc(Cl)cc3)c2)cc1`, for which the IC50 stood at 0.82 µM.
The compound `CN1CCC(C(=O)N(Cc2ccc(-c3ccc(CNCCc4ccccc4)cn3)cc2)C2Cc3ccccc3C2)CC1` yielded an IC50 of 1.06 µM.
For the compound `O=C(NCC1Cc2cc(Oc3ccccc3)ccc2O1)c1ccc([N+](=O)[O-])o1` (stereo unspecified), the concentration for half-maximal inhibition (IC50) was found to be 0.92 µM.
With `COc1ccc(S(=O)(=O)N(CCCN2CCN(C)CC2)Cc2csc(-c3ccc(CNCc4ccccc4)cc3)n2)cc1`, the concentration for half-maximal inhibition (IC50) is 0.95 µM.
The compound `CN(C)CCOc1cc(NC(=O)Nc2ccc(-c3ccncc3)c3ccccc23)ccc1I` returned an IC50 of 0.78 µM.
The compound `COc1cc(Cc2cnc(N)nc2N)ccc1OCC(=O)Nc1ccc(C)cc1` gave an IC50 of 0.48 µM.
Consider `Cc1cnc(C(=O)Nc2cccc(-c3csc(-c4nc5ccccc5[nH]4)c3)c2)cn1`, for which the half-maximal inhibitory concentration (IC50) came to 0.27 µM.
As to `N#Cc1ccc(-c2ccc(C(=O)NCCCCN3CCC(c4ccc5c(c4OCc4ccncc4)CCCC5)CC3)cc2)cc1`, the half-inhibitory concentration (IC50) was 0.76 µM.
On to `CC(C)CNC(=O)c1cncc(-c2ccc(CN3CCC(N4CCCC4)CC3)cc2)c1`, for which the IC50 is 0.69 µM.
Regarding `Cc1ccc(C)c(C=CC(=O)NC2CCC(CN3CCC(c4c[nH]c5ccccc45)CC3)CC2)c1` (stereo unspecified), the IC50 is 0.76 µM and 0.7 µM.
Compound `c1cncc(Oc2ccc(Nc3ccnc4cc(-c5cccc(CN6CCOCC6)c5)ccc34)cc2)c1` showed an IC50 of 0.31 µM.
For the compound `COc1ccc2nccc([C@@H](O)CN3CCC(NC(=O)C(c4ccsc4)N4CCN(c5ccccc5OC)CC4)CC3)c2c1` (stereo partly specified), the half-inhibitory concentration (IC50) stood at 0.83 µM.
In the case of `CCN(CC)CCN(Cc1ccc(-c2ccc(C(F)(F)F)cc2)cc1)C(=O)Cn1c(CCc2cccc(F)c2F)nc(=O)c2ccc(F)cc21` it was 0.36 µM; in that of `Nc1nc(N)c2c(ccc3c2ccn3C2C=CCCC2)n1` (stereo unspecified), 0.13 µM.
`COc1ccc2nccc(NCC3(O)CCN(CC(O)c4ccc5c(c4)NC(=O)CS5)CC3)c2n1` (stereo unspecified) returned a half-maximal inhibitory concentration (IC50) of 0.83 µM.
`CCOc1cc(C(=O)Nc2ccc3nc(N(CC)CC)cc(C)c3c2)cc(OCC)c1OCC` came in with an IC50 of 0.7 µM.
In the case of `O=C(NC1CC1)c1ccc(Cn2c(SCc3cccc(Cl)c3)nc3ccccc3c2=O)cc1` it was 0.42 µM; in that of `CN1CCN(CCCN(Cc2cccc(-c3ccc(CNCCc4ccccc4)cc3)c2)C(=O)c2cccs2)CC1`, 0.72 µM; in that of `CC[C@H]1CN(Cc2cccc(O)c2)CC[C@H]1CCCc1ccnc2ccc(O)cc12`, 0.53 µM.
In the case of `NCCNc1ccnc2cc(Cl)ccc12` it was 0.13 µM; in that of `c1ccc(CNCc2cccc(-c3ccc(-c4nc5ccccc5[nH]4)s3)c2)cc1`, 0.82 µM; in that of `NC1CCN(Cc2ccc(-c3ccc(-c4nc5ccc(F)cc5[nH]4)cc3)cc2)C1` (stereo unspecified), 0.18 µM.
As for `CCCCCCCCOc1c(OCC)cc(Cc2cnc(N)nc2N)cc1OCC`, the figure is 1.53 µM; as for `COc1cc(OC)cc(-c2nc3c(C#N)c(OCCN(C)C)ccc3[nH]2)c1`, 0.65 µM.

As usually defined, the IC50 is the concentration at which inhibition is half-maximal. Read a high IC50 as weaker potency in that assay.
